The subject of experiment [1] is soybean rust pathogen (Phakopsora pachyrhizi). The experiment can be described thus: Soybean rust control test (leaf discs). It is filed as in vivo. The protocol:
Compounds of component (I) and component (II) were dissolved in dimethyl sulfoxide and diluted with water to the prescribed concentration to prepare a chemical agent solution. A mixture of the prescribed concentration of the chemical agent solution and sterile water was prepared on a microplate, and leaf discs cut from soybean leaves were floated on the microplate. Uredospores of soybean rust pathogen (Phakopsora pachyrhizi) were inoculated and incubated at 25° C. for 9 days. The area percentage of lesions was determined by observing uredospore-forming lesions on the leaf discs, and the control value was calculated. The control value was calculated by the following formula:
Control value (%)=100−{Area percentage of lesions in treatment plot/Area percentage of lesions in untreatment plot}×100.
The results are shown in Tables 8 to 18, along with the expected values calculated as below. Each expected values was calculated from the fungicidal efficacy of a single application of compound of component (I) and the fungicidal efficacy of a single application of compound of component (II) by using Colby's equation:
[formula] • where E represents the expected value of the control value for the composition containing component (I) and component (II), M represents the control value (%) when the component (I) is used alone, and N represents the control value (%) when the component (II) is used alone. When the measured control value for the composition containing component (I) and component (II) is greater than the expected value E, the composition containing component (I) and composition (II) should exert a synergistic effect.

Experiment [2] has as its system wheat leaf blight pathogen (Septoria tritici). Put plainly: Fungicidal test for wheat leaf blight (microplate, turbidity at 405 nm). The format is cell-based. As to conditions: for inhibition at 6.3 ppm / inhibition at 12.5 ppm / inhibition at 25 ppm / inhibition at 50 ppm / inhibition at 100 ppm: component (I) alone. The protocol: Compounds of component (I) and component (II) were dissolved in dimethyl sulfoxide at 10,000 ppm and diluted with water to the prescribed concentration to prepare a chemical agent solution. A mixture of the prescribed concentration of the chemical agent solution, wheat leaf blight pathogen (Septoria tritici) conidia, and malt extract was prepared on a microplate and incubated at 20° C. in the dark for 3 days. The turbidity at a wavelength of 405 nm was measured with a microplate reader, and the growth of wheat leaf blight pathogen was compared with that of no treatment control to determine the growth inhibition rate. The results are shown in Tables 2 to 7, along with the expected values calculated as below.
Each expected value was calculated from the fungicidal efficacy of a single application of the compound of component (I) and the fungicidal efficacy of a single application of compound of component (II) by using Colby's equation (S. R. Colby, Calculating synergistic and antagonistic responses of herbicide combinations, Weeds, 15, 20-22 pp (1967)).
[formula] • where E represents the expected value of the growth inhibition rate (%) for the composition containing component (I) and component (II), M represents the growth inhibition rate (%) when the component (I) is used alone, and N represents the growth inhibition rate (%) when the component (II) is used alone. When the measured growth inhibition rate (%) for the composition containing component (I) and component (II) is greater than the expected value E, the composition containing components (I) and component (II) should exert a synergistic effect.

Experiment [3] concerns cucumber anthracnose pathogen (Colletotrichum lagenarium). The experiment can be described thus: Fungicidal test for cucumber anthracnose (microplate, turbidity at 405 nm). The format is cell-based. The protocol:
The compounds were dissolved in dimethyl sulfoxide to prepare a chemical agent solution.
A mixture of the prescribed concentration of the chemical agent solution, cucumber anthracnose pathogen (Colletotrichum lagenarium) conidia, and Vogel medium was prepared on a microplate and incubated at 20° C. in the dark for 7 days.
Each expected value was calculated using Colby's equation:
[formula] • where E represents the expected value of the growth inhibition rate (%), M represents the growth inhibition rate (%) when the component (I) is used alone, and N represents the growth inhibition rate (%) when the component (II) is used alone.

The mark [4] stands for this setting: Table 15, component (II) alone (component (I): None): Azoxystrobin 0.0001, Inpyrfluxam 0.000025, Chlorothalonil 0.0063, Difenoconazole 0.000025, Cyproconazole 0.000025, Tebuconazole 0.000025, Trifloxystrobin 0.0001, Pyraclostrobin 0.0001, Fluazinam 0.0063, Fluxapyroxad 0.000025, Prothioconazole 0.000025, Florylpicoxamid 0.0001, Benzovindiflupyr 0.000025, Mancozeb 0.0063 ppm.

Setting [5] is: Table 18, component (II) alone (component (I): None): Azoxystrobin 0.0001, Inpyrfluxam 0.000025, Chlorothalonil 0.0063, Difenoconazole 0.000025, Cyproconazole 0.000025, Tebuconazole 0.000025, Trifloxystrobin 0.0001, Pyraclostrobin 0.0001, Fluazinam 0.0063, Fluxapyroxad 0.000025, Prothioconazole 0.000025, Florylpicoxamid 0.0001, Benzovindiflupyr 0.000025, Mancozeb 0.0063 ppm.
Where [6] appears, read: Zymoseptoria tritici, component (II) alone, 0.02 ppm, read-out: growth inhibition rate.
The mark [7] stands for this setting: Zymoseptoria tritici, component (II) alone, read-out: growth inhibition rate.
[8] abbreviates: Table 14, component (II) alone (component (I): None): Inpyrfluxam 0.00025, Chlorothalonil 0.006, Thiophanate-methyl 0.0001, Tebuconazole 0.000025, Trifloxystrobin 0.0001, Fluazinam 0.006, Prothioconazole 0.000025, Florylpicoxamid 0.0001, Metominostrobin 0.0004 ppm.
[9] abbreviates: Table 16, component (II) alone (component (I): None): Inpyrfluxam 0.000025, Chlorothalonil 0.006, Thiophanate-methyl 0.0001, Tebuconazole 0.000025, Trifloxystrobin 0.0001, Fluazinam 0.006, Prothioconazole 0.000025, Florylpicoxamid 0.0001, Metominostrobin 0.0004 ppm.
Where [10] appears, read: Table 17, component (II) alone (component (I): None): Inpyrfluxam 0.000026, Chlorothalonil 0.02, Thiophanate-methyl 0.0004, Tebuconazole 0.0001, Trifloxystrobin 0.0001, Fluazinam 0.006, Prothioconazole 0.000025, Florylpicoxamid 0.0001, Metominostrobin 0.0004 ppm.
[11] abbreviates: Zymoseptoria tritici, read-out: growth inhibition rate.
[12] abbreviates: Zymoseptoria tritici, component (II) alone, 0.25 ppm, read-out: growth inhibition rate.

As to `Cn1cc(C(=O)Nc2cccc3c2[C@@H]2CC[C@H]3C2=C(Cl)Cl)c(C(F)F)n1` (racemic) [Benzovindiflupyr, benzovindiflupyr, reference compound], the control value in experiment [1] (setting [4]) and in experiment [1] (setting [5]) was 50% each time. The growth inhibition rate in experiment [2] (component (II) alone, 0.01 ppm) was found to be 48%; in experiment [2] (component (II) alone, 0.04 ppm) it was 65%.
In the case of `Fc1ccc([C@]2(Cn3cncn3)O[C@H]2c2ccccc2Cl)cc1` (racemic) [Epoxiconazole, epoxiconazole], the inhibition at 0.02 ppm in experiment [2] (setting [6]) turned out to be 27%. Moreover, in experiment [2] (setting [7]), the inhibition at 64 ppm came out at 94%.
`CO/C=C(/C(=O)OC)c1ccccc1Oc1cc(Oc2ccccc2C#N)ncn1` [Azoxystrobin, azoxystrobin, reference compound]: the values for the control value in experiment [1] (setting [4]) and in experiment [1] (setting [5]) were 33% and 0%, respectively. Besides, the growth inhibition rate in experiment [2] (component (II) alone, 0.06 ppm) was found to be 10%; in experiment [2] (component (II) alone, 1 ppm) it was 10%.
Turning to `Cn1cc(C(=O)Nc2ccc(F)cc2-c2ccc(Cl)c(Cl)c2)c(C(F)F)n1` [Bixafen, bixafen], the growth inhibition rate in experiment [2] (component (II) alone, 0.004 ppm) was found to be 27%.
For the compound `N#Cc1c(Cl)c(Cl)c(Cl)c(C#N)c1Cl` [Chlorothalonil, chlorothalonil, reference compound], the control value is reported as 44% in experiment [1] (setting [8]); 33% in experiment [1] (setting [4]); 44% in experiment [1] (setting [9]); 75% in experiment [1] (setting [10]); 0% in experiment [1] (setting [5]). Moreover, the inhibition at 0.001 ppm in experiment [2] (Zymoseptoria tritici, component (II) alone, 0.001 ppm, read-out: growth inhibition rate) was 8%. In addition, in experiment [2] (setting [6]), the inhibition at 0.02 ppm is 2%. Further, the inhibition at 0.04 ppm in experiment [2] (Zymoseptoria tritici, component (II) alone, 0.04 ppm, read-out: growth inhibition rate) is 9%.
For `CCON=C1CN(C(=O)Cc2ccc(-c3noc(C(F)(F)F)n3)cc2)C1` [Compound 1], the control value in experiment [1] (component (I) alone, 0.0063 ppm) was 12%. Besides, the control value in experiment [1] (component (I) alone, 0.025 ppm) came to 48%. For the same compound, the control value in experiment [1] (component (I) alone, 0.1 ppm) amounted to 75%. Besides, the control value in experiment [1] (component (I) alone, 0.4 ppm) was 99%. In experiment [2] (setting [11]), the inhibition at 6.3 ppm turned out to be 44%, the inhibition at 12.5 ppm was 58%, the inhibition at 25 ppm turned out to be 70% and the inhibition at 50 ppm turned out to be 82%. In addition, the inhibition at 100 ppm in experiment [2] (setting [11]) came to 90%.
For `O=C(Cc1ccc(-c2noc(C(F)(F)F)n2)cc1)N1CCC(=NOC2CCCCO2)CC1` (stereo not shown) [Compound 2], in experiment [2] (setting [11]), the inhibition at 6.3 ppm stood at 34%, the inhibition at 12.5 ppm came out at 46%, the inhibition at 25 ppm amounted to 52% and the inhibition at 50 ppm was 59%. Also, the inhibition at 100 ppm in experiment [2] (setting [11]) came out at 62%.
Take `O=S(=O)([O-])[O-].[Cu+2]` [Copper sulfate, copper sulfate]: the growth inhibition rate in experiment [2] (component (II) alone, 0.25 ppm) is recorded as 8%; in experiment [2] (component (II) alone, 1 ppm), 24%; in experiment [2] (component (II) alone, 16 ppm), 73%.
Consider `Cc1ccc(-c2c(Cl)nc(C#N)n2S(=O)(=O)N(C)C)cc1` [Cyazofamid, cyazofamid], for which, in experiment [2] (setting [12]), the inhibition at 0.25 ppm was found to be 0%. In addition, the inhibition at 4 ppm in experiment [2] (Zymoseptoria tritici, component (II) alone, 4 ppm, read-out: growth inhibition rate) stood at 6%. In addition, in experiment [2] (Zymoseptoria tritici, component (II) alone, 16 ppm, read-out: growth inhibition rate), the inhibition at 16 ppm turned out to be 4%. The inhibition at 64 ppm in experiment [2] (setting [7]) came out at 27%.
As to `CO/C=C(/C(=O)OC)c1ccccc1COc1cccc(C(F)(F)F)n1` [Picoxystrobin, picoxystrobin], the growth inhibition rate was determined as 2% in experiment [2] (component (II) alone, 0.02 ppm); 3% in experiment [2] (component (II) alone, 0.06 ppm); 8% in experiment [2] (component (II) alone, 0.25 ppm); 8% in experiment [2] (component (II) alone, 1 ppm).
For the compound `COC(=O)NC(=S)Nc1ccccc1NC(=S)NC(=O)OC` [Thiophanate-methyl], the growth inhibition rate is 0% in experiment [3] (Table 19, component (II) alone (component (I): None): Ipflufenoquin 0.000026, Iminoctadine trialbesilate 0.0032, Cyflufenamid 10, Cyprodinil 0.00013, Potassium bicarbonate 0.08, Thiophanate-methyl 0.08, Picarbutrazox 0.016, Fludioxonil 0.0032, Florylpicoxamid 0.0032, Metyltetraprole 0.08, Mefentrifluconazole 0.4 ppm); 0% in experiment [3] (Table 20, component (II) alone (component (I): None): Ipflufenoquin 0.00064, Iminoctadine trialbesilate 0.0032, Cyflufenamid 10, Cyprodinil 0.00013, Potassium bicarbonate 0.08, Thiophanate-methyl 0.4, Picarbutrazox 0.016, Fludioxonil 0.0032, Florylpicoxamid 0.0032, Metyltetraprole 0.08, Mefentrifluconazole 0.4 ppm); 0% in experiment [3] (Table 21, component (II) alone (component (I): None): Ipflufenoquin 0.00064, Iminoctadine trialbesilate 0.0032, Cyflufenamid 10, Cyprodinil 0.00013, Potassium bicarbonate 0.08, Thiophanate-methyl 0.4, Picarbutrazox 0.00064, Fludioxonil 0.0032, Florylpicoxamid 0.0032, Metyltetraprole 0.08, Mefentrifluconazole 0.4 ppm); 0% in experiment [3] (Table 22, component (II) alone (component (I): None): Ipflufenoquin 0.00064, Iminoctadine trialbesilate 0.0032, Cyflufenamid 10, Cyprodinil 0.00013, Potassium bicarbonate 0.08, Thiophanate-methyl 0.4, Picarbutrazox 0.00064, Fludioxonil 0.0032, Florylpicoxamid 0.0032, Metyltetraprole 0.08, Mefentrifluconazole 0.4 ppm); 0% in experiment [3] (Table 23, component (II) alone (component (I): None): Ipflufenoquin 0.00064, Iminoctadine trialbesilate 0.0032, Cyflufenamid 10, Cyprodinil 0.000026, Potassium bicarbonate 0.08, Thiophanate-methyl 0.4, Picarbutrazox 0.00064, Fludioxonil 0.00064, Florylpicoxamid 0.0032, Metyltetraprole 0.08, Mefentrifluconazole 0.4 ppm); 0% in experiment [3] (Table 24, component (II) alone (component (I): None): Ipflufenoquin 0.00064, Iminoctadine trialbesilate 0.0032, Cyflufenamid 10, Cyprodinil 0.00013, Potassium bicarbonate 0.08, Thiophanate-methyl 0.4, Picarbutrazox 0.00064, Fludioxonil 0.00013, Florylpicoxamid 0.0032, Metyltetraprole 0.08, Mefentrifluconazole 0.4 ppm). Besides, the control value in experiment [1] (setting [8]) amounted to 27%; in experiment [1] (setting [9]), 27%; in experiment [1] (setting [10]), 66%.
As to `CCCOC/C(=N\c1ccc(Cl)cc1C(F)(F)F)n1ccnc1` [Triflumizole, triflumizole], the inhibition at 0.06 ppm in experiment [2] (Zymoseptoria tritici, component (II) alone, 0.06 ppm, read-out: growth inhibition rate) was 12%. The inhibition at 0.25 ppm in experiment [2] (setting [12]) was determined as 11%.

The inhibition is the drop in the measured response relative to a control, in per cent.
